Measured values as given in patent US8809321B2, “Diaryl ether linked pyrrolo [2,1-c][1,4] benzodiazepine hybrids and process for the preparation thereof” (Council of Scientific and Industrial Research, priority 2011, dated 2014).
Read-outs that look alike come from different tables or passages of the source.

How the values were obtained:
[1] = tested on: PC3 prostrate cancer cell line; experiment: MTT assay, 48 h continuous drug exposure, PC3; assay type: cell-based, human; conditions: read-out: GI50 PC3
Description: (§1) For each compound, dose response curves for each cell line were measured at a minimum of five concentrations at 10 fold dilutions. A protocol of 48 h continuous drug exposure was used and a MTT assay was used to estimate cell viability or growth. The percent of cell growth (GI50) compared with the control was calculated.

[2] = tested on: Colo205 colon cancer cell line; experiment: MTT assay, 48 h continuous drug exposure, Colo205; assay type: cell-based, human
Description: (§2) Some of the C8-linked diaryl ether-PBD hybrids have been tested against eleven human tumour cell lines derived from seven cancer types (lung cancer, colon cancer, cervix, ovarian cancer, oral cancer, prostate cancer and breast cancer) as per Tata protocol as shown in Table 2. For each compound, dose response curves for each cell line were measured at a minimum of five concentrations at 10 fold dilutions. A protocol of 48 h continuous drug exposure was used and a MTT assay was used to estimate cell viability or growth. The percent of cell growth (GI50) compared with the control was calculated. Some of the compounds have been evaluated for their in vitro cytotoxicity in eleven cell lines from seven human cancer types. The results are expressed as GI50 determined relative to that of untreated control cells (Table-2).

[3] = tested on: A549 lung cancer cell line; experiment: MTT assay, 48 h continuous drug exposure, A549; assay type: cell-based, human
Description: as §2

[4] = tested on: duplex-form calf thymus DNA (CT-DNA); experiment: Thermal denaturation studies with calf thymus DNA (DNA binding affinity); conditions: [PBD]:[DNA] molar ratio 1:5, CT-DNA 100 μM, ligand 20 μM, sodium phosphate buffer pH 7.00; for (ΔTm ° C.) after incubation at 37° C. for 0 h: 0 h at 37° C.; for (ΔTm ° C.) after incubation at 37° C. for 18 h: 18 h at 37° C.
Description: DNA Binding Affinity of Diaryl Ether Linked PBD Hybrids: Compounds have been subjected to thermal denaturation studies with duplex-form calf thymus DNA (CT-DNA) using a modification of a reported procedure (Newman, M. S. Carcinog-compr. Surv. 1976, 1, 203; ([…].; Loy, M.; Hoffman, Carcinog-compr. […] The DNA-PBD solutions have been incubated at 37° C. for 0 and 18 h prior to analysis. […] DNA helix→coil transition temperatures (Tm) have been obtained from the maxima in the d(A260)/dT derivative plots. […] The DNA binding activity for these novel C8-linked diaryl ether PBD hybrids has been examined by thermal denaturation studies using calf thymus (CT) DNA. […] The data for the compounds are included in Table 1 for comparison.

[5] = tested on: A2780 ovarian cancer cell line; experiment: MTT assay, 48 h continuous drug exposure, A2780; assay type: cell-based, human; conditions: read-out: GI50 A2780
Description: as §1

[6] = tested on: MCF7 breast cancer cell line; experiment: MTT assay, 48 h continuous drug exposure, MCF7; assay type: cell-based, human
Description: as §2

[7] = tested on: SiHa Cervix cancer cell line; experiment: MTT assay, 48 h continuous drug exposure, SiHa; assay type: cell-based, human; conditions: read-out: GI50 SiHa
Description: as §1

[8] = tested on: Hop62 lung cancer cell line; experiment: MTT assay, 48 h continuous drug exposure, Hop62; assay type: cell-based, human; conditions: read-out: GI50 Hop62
Description: as §1

[9] = tested on: Gurav oral cancer cell line; experiment: MTT assay, 48 h continuous drug exposure, Gurav; assay type: cell-based, human; conditions: read-out: GI50 Gurav
Description: as §1

[10] = tested on: ZR-751 breast cancer cell line; experiment: MTT assay, 48 h continuous drug exposure, ZR-751; assay type: cell-based, human; conditions: read-out: GI50 ZR-751
Description: as §1

[11] = tested on: DWD oral cancer cell line; experiment: MTT assay, 48 h continuous drug exposure, DWD; assay type: cell-based, human; conditions: read-out: GI50 DWD
Description: as §1

[12] = prostrate cancer cell line, 48 h exposure, MTT
[13] = ovarian cancer cell line, 48 h exposure, MTT
[14] = Cervix cancer cell line, 48 h exposure, MTT
[15] = lung cancer cell line, 48 h exposure, MTT
[16] = oral cancer cell line, 48 h exposure, MTT
[17] = breast cancer cell line, 48 h exposure, MTT

SMILES	GI50 [1, 12] [nM]	GI50 ([2]; 48 h exposure) [nM]	GI50 ([3]; 48 h exposure) [nM]	(ΔTm ° C.) after incubation at 37° C. for 0 h [4] [°C]	(ΔTm ° C.) after incubation at 37° C. for 18 h [4] [°C]	GI50 [5, 13] [nM]	GI50 ([6]; 48 h exposure) [nM]	GI50 [7, 14] [nM]	GI50 [8, 15] [nM]	GI50 [9, 16] [nM]	GI50 [10, 17] [nM]	GI50 [11, 16] [nM]	also measured
COc1cc2c(cc1OCCCCCOc1ccc(Oc3cc(OC)c(OC)c(OC)c3)c([N+](=O)[O-])c1)N=C[C@@H]1CCCN1C2=O [21c, 7-Methoxy-(8-3-[4-(3,4,5-timethoxyphenoxy)-3-nitrophenoxy]pentyloxy)-(11aS)-1,2,3,11a-tetrahydro-5H-pyrrolo[2,1-c][1,4]benzodiazepin-5-one]	1580	2510	2500	3.9	5.1	1560	1850	1260	3100	2860	1600	2130	
COc1cc2c(cc1OCCCCCOc1cccc(Oc3cc(OC)c(OC)c(OC)c3)c1[N+](=O)[O-])N=C[C@@H]1CCCN1C2=O [21g, 7-Methoxy-(8-3-[3-(3,4,5-trimethoxyphenoxy)-2-nitrophenoxy]pentyloxy)-(11aS)-1,2,3,11a-tetrahydro-5H-pyrrolo[2,1-c][1,4]benzodiazepin-5-one]	190	170	2020	4.9	6.2	2100	2300	2210	2130	160	180	170	
COc1ccc(Oc2ccc(C(=O)N3CCN(CCCCCOc4cc5c(cc4OC)C(=O)N4CCC[C@H]4C=N5)CC3)cc2N)cc1 [22c]	190	170	180	3.1	4.2	190	170	3250	2300	160	190	180	
COc1ccc(Oc2ccc(C(=O)N3CCN(CCCCCOc4cc5c(cc4OC)C(=O)N4CCC[C@H]4C=N5)CC3)cc2N)cc1OC [23c]	170	160	180	3.6	4.5	180	150	2470	2280	120	190	150	
COc1cc2c(cc1OCCCCCN1CCN(C(=O)c3ccc(Oc4cc(OC)c(OC)c(OC)c4)c(N)c3)CC1)N=C[C@@H]1CCCN1C2=O [24c]	170	540	170	4.5	6.0	2000	170	2500	2260	150	180	160	
COc1ccc(Oc2ccc(C(=O)N3CCN(CCCCCOc4cc5c(cc4OC)C(=O)N4CCC[C@H]4C=N5)CC3)cc2[N+](=O)[O-])cc1 [31c]	170	170	170	3.9	5.6	190	180	3880	190	160	180	180	
COc1ccc(Oc2ccc(C(=O)N3CCN(CCCCCOc4cc5c(cc4OC)C(=O)N4CCC[C@H]4C=N5)CC3)cc2[N+](=O)[O-])cc1OC [32c]	190	160	140	4.8	7.3	150	170	1850	180	120	150	140	
COc1cc2c(cc1OCCCCCN1CCN(C(=O)c3ccc(Oc4cc(OC)c(OC)c(OC)c4)c([N+](=O)[O-])c3)CC1)N=C[C@@H]1CCCN1C2=O [33c]	2150	150	2240	4.2	6.1	2300	180	2250	2670	170	2200	2100	
C1=CC2=CN=c3ccccc3=CN2C1 [DC-81, pyrrolo[2,1-c][1,4]benzodiazepine, reference compound]				0.3	0.7								GI50 ([1]; Homo sapiens, 48 h): 170 nM; GI50 ([2]; Homo sapiens, COLO 205, 48 h exposure): 110 nM; GI50 ([3]; Homo sapiens, A549, 48 h exposure): 160 nM; GI50 ([5]; Homo sapiens, A2780, 48 h): 150 nM; GI50 ([6]; Homo sapiens, MCF7, 48 h exposure): 170 nM; GI50 ([7]; Homo sapiens, SiHa, 48 h): 140 nM; GI50 ([8]; Homo sapiens, HOP-62, 48 h): 170 nM; GI50 ([9]; Homo sapiens, Gurav, 48 h): 1490 nM; GI50 ([10]; Homo sapiens, ZR-75-1, 48 h): 160 nM; GI50 ([11]; Homo sapiens, 48 h): 200 nM
